# How the values were obtained:
# [1] = tested on: Influenza A (strain A/PR/8/34); assay: Anti-influenza cytopathic effect (CPE) assay in MDCK cells, prophylactic regimen (Example 7); type: cell-based; parameters: key to CPE score: 1: Complete monolayer with few gaps or dead cells; 2: Some gaps in the monolayer; dead cells more evident; 3: Increasing number of gaps in the monolayer concurrent with dead cells; 4: Gaps widely distributed throughout the monolayer and of increasing size; 5: Large holes forming as smaller gaps merge; copious dead cells evident; 6: Monolayer integrity lost. Small islands of attached cells amid predominantly dead cells; conditions: for CPE score: Influenza A, MDCK
# [2] = tested on: Influenza B (strain B/Lee/40); assay: as above; type: cell-based; parameters: key to CPE score: 1: Complete monolayer with few gaps or dead cells; 2: Some gaps in the monolayer; dead cells more evident; 3: Increasing number of gaps in the monolayer concurrent with dead cells; 4: Gaps widely distributed throughout the monolayer and of increasing size; 5: Large holes forming as smaller gaps merge; copious dead cells evident; 6: Monolayer integrity lost. Small islands of attached cells amid predominantly dead cells; conditions: for CPE score: Influenza B, MDCK, virus + DMSO control 4
# [3] = tested on: all three transformed neuronal cell lines (IMR32, NG108, NSC34); assay: MTT (CIMA) cell proliferation assay (Example 4); conditions: 72 h post-treatment; 0.5-250 μg/ml
# Method: (§1) Compound preparation: Stock solutions of test compounds were prepared in dimethylsulfoxide (DMSO) at 250 mg/ml. Working concentrations of 10 mg/ml were subsequently prepared from the stock solution and stored in 50 μl aliquots at −20° C. until used.
# Cells and cell culture: Three classes of cells were evaluated: 1) neuroblastoma cells, 2) neuroglioma cells, and 3) non-transformed human neurons (see below). All cells were maintained in appropriate culture medium supplemented with 10% fetal calf serum (FCS) and antibiotics in a humidified, 5% CO2 environment. Cells were passaged as required by trypsinization.
# Assay conditions: The effects of the test compounds were assessed following acute and chronic exposure conditions. […] Each compound was evaluated over a broad range of concentrations (0, 0.5, 1, 5, 10, 50, 100 and 250 μg/ml) with cells treated with equivalent concentrations of vehicle (DMSO) serving as controls.
# Cell proliferation assay: Cell proliferation was assessed using a standard colorimetric indicator of metabolic activity (CIMA) assay. In this assay, the reduction of yellow tetrazolium salt (MTT) to purple formazan by mitochondrial reductase enzymes in viable cells was evaluated as a measure of metabolic activity to determine the extent of cell proliferation within a culture. […]
# [4] = tested on: U373 astroglioma cells; assay: MTT (CIMA) cell proliferation assay, acute and chronic exposure (Example 3); conditions: acute (24 h) and chronic (72 h) treatment, 0.5-250 μg/ml
# Method: as §1
# (§2) Cells and cell culture: Proof-of-principle studies in this example focused on two human brain cancer cell lines, namely SH-SY5Y neuroblastoma cells and U373 astroglioma cells. […] Both cells were maintained in (50:50) F12:DMEM medium supplemented with 10% fetal calf serum (FCS) and antibiotics in a humidified, 5% CO2 environment. Cells were passaged as required by trypsinization.
# (§3) Assays conditions: The effects of the test compounds were assessed following acute and chronic exposure conditions. […] The test compounds were evaluated over a broad range of concentrations (0, 0.5, 1, 5, 10, 50, 100 and 250 μg/ml) with cells treated with equivalent concentrations of vehicle (DMSO) serving as controls.
# (§4) Cell proliferation assay: Cell proliferation was assessed using a standard colorimetric indicator of metabolic activity (CIMA) assay. In this assay, the reduction of yellow tetrazolium salt (MTT) to purple formazan by mitochondrial reductase enzymes in viable cells was evaluated as a measure of metabolic activity to determine the extent of cell proliferation within a culture. The resulting colour change that conferred a change in absorbance was quantified using a spectrophotometer (λ=500-600). Samples were diluted as required to ensure that values obtained with the MTT assay fell within the linear range of the protocol. Qualitative microscopic evaluation of treated cultures was used to determine if overt cytotoxicity was present and to supplement the quantitative CIMA data.
# [5] = tested on: MDCK cells; assay: Cytotoxicity assay (MTT/CIMA) in MDCK cells (Example 7)
# [6] = tested on: SH-SY5Y neuroblastoma cells; assay: MTT (CIMA) cell proliferation assay, acute and chronic exposure (Example 3)
# Method: as §1, §2, §3, §4
smiles,measurement,setting,value
"CC(C)(C)OC(=O)N1CCCC1O (centres unmarked) [I(b), tert-butyl 2-hydroxypyrrolidine-1-carboxylate]",CPE score,"[1]; 0.5 μg/ml, virus + DMSO control 3",1
same,CPE score,"[1]; 0.5 μg/ml, virus + DMSO control 4",2
same,CPE score,"[1]; 1.0 μg/ml, virus + DMSO control 3",1
same,CPE score,"[1]; 1.0 μg/ml, virus + DMSO control 4",2
same,CPE score,"[1]; 5.0 μg/ml, virus + DMSO control 3",1
same,CPE score,"[1]; 5.0 μg/ml, virus + DMSO control 4",3
same,CPE score,"[1]; 10 μg/ml, virus + DMSO control 3",3
same,CPE score,"[1]; 10 μg/ml, virus + DMSO control 4",4
same,CPE score,"[1]; 25 μg/ml, virus + DMSO control 3",3
same,CPE score,"[1]; 25 μg/ml, virus + DMSO control 4",4
same,CPE score,"[1]; 50 μg/ml, virus + DMSO control 3",3
same,CPE score,"[1]; 50 μg/ml, virus + DMSO control 4",4
same,CPE score,"[1]; 100 μg/ml, virus + DMSO control 3",3
same,CPE score,"[1]; 100 μg/ml, virus + DMSO control 4",4
same,effect on CPE (summary in words),[1]; comparatively lower concentrations,lower concentrations more greatly reduced CPE
same,effect on CPE (summary in words),[2]; Influenza B infection,little impact on CPE
same,CPE score,"[2]; 24 hpi, 0.5 μg/ml",3
same,CPE score,"[2]; 24 hpi, 1.0 μg/ml",4
same,CPE score,"[2]; 24 hpi, 5.0 μg/ml",4
same,CPE score,"[2]; 24 hpi, 10 μg/ml",3
same,CPE score,"[2]; 24 hpi, 25 μg/ml",4
same,CPE score,"[2]; 24 hpi, 50 μg/ml",3
same,CPE score,"[2]; 24 hpi, 100 μg/ml",4
same,CPE score,"[2]; 48 hpi, 0.5 μg/ml",3
same,CPE score,"[2]; 48 hpi, 1.0 μg/ml",4
same,CPE score,"[2]; 48 hpi, 5.0 μg/ml",4
same,CPE score,"[2]; 48 hpi, 10 μg/ml",4
same,CPE score,"[2]; 48 hpi, 25 μg/ml",4
same,CPE score,"[2]; 48 hpi, 50 μg/ml",3
same,CPE score,"[2]; 48 hpi, 100 μg/ml",3
same,viability/proliferation,[3],dose-dependent decreases in viability/proliferation
same,overt cell death / reductions in MTT activity,[4],Neither overt cell death nor significant reductions in MTT activity
same,"Toxicity (MTT), fold changes relative to vehicle controls","[5]; 24 h exposure, 0.5 μg/ml",1.02 fold
same,"Toxicity (MTT), fold changes relative to vehicle controls","[5]; 24 h exposure, 1.0 μg/ml",1.07 fold
same,"Toxicity (MTT), fold changes relative to vehicle controls","[5]; 24 h exposure, 5.0 μg/ml",1.09 fold
same,"Toxicity (MTT), fold changes relative to vehicle controls","[5]; 24 h exposure, 10 μg/ml",1.00 fold
same,"Toxicity (MTT), fold changes relative to vehicle controls","[5]; 24 h exposure, 25 μg/ml",1.08 fold
same,"Toxicity (MTT), fold changes relative to vehicle controls","[5]; 24 h exposure, 50 μg/ml",1.13 fold
same,"Toxicity (MTT), fold changes relative to vehicle controls","[5]; 24 h exposure, 100 μg/ml",1.09 fold
same,"Toxicity (MTT), fold changes relative to vehicle controls","[5]; 72 h exposure, 0.5 μg/ml",0.99 fold
same,"Toxicity (MTT), fold changes relative to vehicle controls","[5]; 72 h exposure, 1.0 μg/ml",1.00 fold
same,"Toxicity (MTT), fold changes relative to vehicle controls","[5]; 72 h exposure, 5.0 μg/ml",0.94 fold
same,"Toxicity (MTT), fold changes relative to vehicle controls","[5]; 72 h exposure, 10 μg/ml",0.97 fold
same,"Toxicity (MTT), fold changes relative to vehicle controls","[5]; 72 h exposure, 25 μg/ml",1.04 fold
same,"Toxicity (MTT), fold changes relative to vehicle controls","[5]; 72 h exposure, 50 μg/ml, decreases exceeding 25% considered toxic",0.99 fold
same,"Toxicity (MTT), fold changes relative to vehicle controls","[5]; 72 h exposure, 100 μg/ml, decreases exceeding 25% considered toxic",0.89 fold
same,cytotoxicity (summary in words),[5]; higher concentrations (≧25 μg/ml),did not evidence cytotoxicity
same,decrease in MTT activity,"[6]; SH-SY5Y, acute treatment (24 h), 0.25 mg/ml",approximately 30%
same,change in MTT activity,"[6]; SH-SY5Y, acute treatment (24 h), other concentrations evaluated (below 0.25 mg/ml)",No significant change in MTT activity
same,decrease in MTT activity,"[6]; SH-SY5Y, chronic treatment (72 h), 50 μg/ml",25%
same,decrease in MTT activity,"[6]; SH-SY5Y, chronic treatment (72 h), 100 μg/ml",25%
same,decrease in MTT activity,"[6]; SH-SY5Y, chronic treatment (72 h), 250 μg/ml",47%
same,LD50,"[6]; select cell types, chronic conditions (72 h)",~0.25 mg/mL

# From patent US8916605B2, “Compounds and methods for treating cancer and viral infections” (priority 2009, dated 2014)
